From patent US20060019320A1, “Wnt mediated erbb signalling, compositions and uses related thereto” (priority 2002, published 2006)

How the values were obtained:
cyclin D1 = assay: Cyclin D1 immunoblot in HC11 cells; assay type: cell-based, mouse; settings: Wnt1- and Wnt5a-HC11 cells treated 6 hr
Method: Briefly, WCL was prepared from HC11, Wnt1- and Wnt5a-expressing HC11 cells and 50 μg immunoblotted essentially as described above using commercially available antibodies against cyclin D1 (NovaCastra) or cyclin D2 (SantaCruz). Both Wnt1- and Wnt5a-HC11 cells express higher levels of cyclin D1, in comparison to HC11 cells. In addition, Wnt1-HC11 cells but not C- or Wnt5a-HC11 cells express cyclin D2.
C-HC11 cells were also treated 6 hrs with CM from Wnt-HC11 cells. WCL were prepared and 50 μg was immunoblotted for Cyclin D1 or Cyclin D2. Similar to the results with the Wnt-HC11 cell lines, both Wnts (CM) stimulated Cyclin D1 expression, while only Wnt1 enhanced cyclin D2 levels.
To assess the contribution of Wnt-transactivated ErbB1 on cyclin D1 and D2 expression, C- and Wnt-HC11 cells were treated 6 hr with PKI166 or CGS27023A or EGF. […] In contrast, the ErbB1 inhibitor had no effect on cyclin D2 levels. […] Thus, cyclin D1 and cyclin D2 are differentially controlled. Both Wnt1 and Wnt5a transactivate ErbB1, which results in increased expression of cyclin D1; in contrast cyclinD2 is only elevated in Wnt1 expressing cells and this is independent of ErbB1 activity.

ERK1/2 = assay: phospho-ERK1/2 immunoblot (MAPK activity) in HC11 cells; assay type: cell-based, mouse; settings: for ability of the Wnt proteins to stimulate ERK1/2 activity: C-HC11 pretreated 1 hr with inhibitor, then Wnt CM for 10 minutes
Description: The MAPK and PI3K pathways are major signaling cascades downstream of activated ErbB receptors (Olayioye et al., 2000). Antisera specific for the active, phosphorylated forms of ERK1/2 and PKB, the major kinases on the respective pathways, were used to probe for their activity. 50 micrograms of WCL were immunoblotted essentially as described above with the exception that a phospho-ERK1/2 antibody (commercially available, New England Biolabs) or a phosphoPKB antibody was used. Membranes were stripped and reprobed for ERK1/2 (anti-p44/42 ERK, New England Biolabs).
Briefly, conditioned media (CM) from Wnt-HC11 cells prepared as described in Example 1 was tested for its effect on ErbB1 and MAPK activity, essentially as described above. Treatment of C-HC11 cells for 10 min with Wnt1- and Wnt5a-CM stimulated phospho-ERK1/2 levels 5-6-fold, whereas CM from C-HC11 cells had no effect.
To rule out the potential involvement of ErbB1 ligands in mediating the effects of Wnt-containing CM, we used secreted Frizzled-related protein-1 (sFRP-1), which binds Wnt preventing it from binding Fz (Uren et al., 2000). CM from human embryonic kidney (HEK293) cells stably expressing the sFRP1 expression vector or control HEK 293 cells was premixed 1 hr with Wnt-containing CM (1:1) before adding to C-HC11 cultures for 10 min. Simultaneous addition of CM from sFRP1-producing 293 cells with Wnt-containing CM prevented Wnt1 and Wnt5a from increasing phospho-ERK1/2 levels, showing that sFRP1 blocks Wnt signalling through Fz to ErbB1. As a control, the cells were also treated for 10 minutes with EGF in the presence of sFRP1.
To test for a role of metalloproteinases in Wnt-expressing HC11 cells, two metalloproteinase inhibitors were used, namely phenanthroline (Calbiochem), a metal ion chelator, or CGS27023A, an enzymatic inhibitor (Wang et al., 1999). Cells were treated for 1 hour with phenathroline, CGS27023A, (both at 50μM) or DMSO carrier. ErbB1 was immunoprecipitated from 500 micrograms WCL and immunoblotted with a phosphotyrosine specific antibody, essentially as described above. Membranes were stripped and reprobed for ErbB1. ERK1/2 was probed from 50 micrograms of WCL, immunoblotted with a phospho-ERK1/2 antibody, essentially as described above. Membranes were stripped and reprobed for ERK1/2.
The metalloproteinase inhibitors were next tested in the presence of Wnt-containing CM. C-HC11 cultures were pretreated 1 hr with metalloproteinase inhibitors before treatment with CM from C- or Wnt-HC11 cells for 10 minutes. Phospho-ERK1/2 levels were determined as above. Phenanthroline and CGS 27023A each blocked the ability of the Wnt proteins to stimulate ERK1/2 activity in C-HC11 cells. Similar results were obtained with HC11 cells constitutively expressing the Wnt proteins. Thus, Wnt-mediated activation of ErbB1 and ERK is dependent on a metalloproteinase activity.

ErbB1 = target: T1, ErbB1 (Mus musculus, UniProt Q01279); assay: ErbB1 immunoprecipitation and phosphotyrosine immunoblot in HC11 cells; assay type: cell-based; settings: Wnt-HC11 cells, 5 microM for 1 hr
T1 construct: endogenous in cells; host or cells: HC11 mammary cells (C-HC11, Wnt1-HC11, Wnt5a-HC11)
T1 sequence (Q01279 25-1210): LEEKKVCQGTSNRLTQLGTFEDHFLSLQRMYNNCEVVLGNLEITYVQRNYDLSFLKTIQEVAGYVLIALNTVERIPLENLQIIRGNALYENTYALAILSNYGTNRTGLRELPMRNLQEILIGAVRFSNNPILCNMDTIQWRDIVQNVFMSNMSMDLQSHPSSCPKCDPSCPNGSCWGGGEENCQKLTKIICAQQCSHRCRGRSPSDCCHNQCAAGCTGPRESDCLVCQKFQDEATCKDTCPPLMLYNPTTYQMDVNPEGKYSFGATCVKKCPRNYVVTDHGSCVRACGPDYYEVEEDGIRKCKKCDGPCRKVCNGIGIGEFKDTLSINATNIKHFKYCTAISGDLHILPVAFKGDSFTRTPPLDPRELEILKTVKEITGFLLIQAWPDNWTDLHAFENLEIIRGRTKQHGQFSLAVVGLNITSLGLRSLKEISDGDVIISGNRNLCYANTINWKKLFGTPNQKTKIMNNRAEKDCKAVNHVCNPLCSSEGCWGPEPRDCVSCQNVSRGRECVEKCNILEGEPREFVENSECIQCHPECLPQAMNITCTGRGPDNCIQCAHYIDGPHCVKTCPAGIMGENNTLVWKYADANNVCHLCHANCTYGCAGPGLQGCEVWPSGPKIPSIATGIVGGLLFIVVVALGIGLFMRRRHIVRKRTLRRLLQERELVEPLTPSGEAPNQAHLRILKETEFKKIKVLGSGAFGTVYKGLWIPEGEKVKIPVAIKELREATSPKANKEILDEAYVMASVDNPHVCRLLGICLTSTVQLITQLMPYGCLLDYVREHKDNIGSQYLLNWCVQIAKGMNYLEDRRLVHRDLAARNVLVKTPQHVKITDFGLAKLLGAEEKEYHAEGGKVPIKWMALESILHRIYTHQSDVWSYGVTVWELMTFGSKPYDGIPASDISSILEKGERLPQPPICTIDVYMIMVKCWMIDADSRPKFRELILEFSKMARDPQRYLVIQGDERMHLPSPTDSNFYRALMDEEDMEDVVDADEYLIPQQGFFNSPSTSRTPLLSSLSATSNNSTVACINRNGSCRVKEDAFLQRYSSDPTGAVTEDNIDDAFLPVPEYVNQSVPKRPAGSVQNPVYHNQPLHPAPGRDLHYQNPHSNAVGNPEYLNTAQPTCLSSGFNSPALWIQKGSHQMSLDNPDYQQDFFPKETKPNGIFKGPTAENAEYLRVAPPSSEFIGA
Method: ErbB1 is transactivated by many classes of membrane proteins (Carpenter, 1999; Gschwind et al., 2001). However, Wnt/VFz-mediated activation of ErbB1 has not been reported previously. Since ErbB1 tyrosine phosphorylation is an essential step in ErbB1 activation, we examined whether Wnt can activate ErbB1, by immunoprecipitating the receptor form Wnt/HC11 cells and performing a Westem analysis with phosphotyrosine specific antiserum. For these experiments HC11 cells were grown over night in medium without EGF. As a control for ErbB1 activation, C-HC 11 and Wnt-HC11 cells were treated for 10 minutes with 100 ng/ml EGF. An ErbB1 selective kinase inhibitor PKI166 (Traxler et al., 2001) was also used in some experiments. For this, the cells were pretreated 1 hr with 5 microM PKI 166, or left untreated, before preparing WCLs, essentially as described in Example 1.
ErbB1 was immunoprecipitated from 500 micrograms WCL and immunoblotted with a phosphotyrosine specific antibody (anti-phosphotyrosine AG10, Upstate Biotechnology) essentially as described previously (Lane et al., 2000). Membranes were stripped by placing them in 2% SDS, 62.5 mM Tris pH 6.8, 100 mM beta-mercaptoethanol at 60° C. for 30 min. Stripped membranes were reprobed for ErbB1 using a commercially available antibody (antibody 1005,Santa Cruz Biotechnology). […]

cyclin D2 = assay: Cyclin D2 immunoblot in HC11 cells; assay type: cell-based, mouse; settings: Wnt-HC11 cells treated 6 hr
Method: Briefly, WCL was prepared from HC11, Wnt1- and Wnt5a-expressing HC11 cells and 50 μg immunoblotted essentially as described above using commercially available antibodies against cyclin D1 (NovaCastra) or cyclin D2 (SantaCruz). Both Wnt1- and Wnt5a-HC11 cells express higher levels of cyclin D1, in comparison to HC11 cells. In addition, Wnt1-HC11 cells but not C- or Wnt5a-HC11 cells express cyclin D2. C-HC11 cells were also treated 6 hrs with CM from Wnt-HC11 cells. WCL were prepared and 50 μg was immunoblotted for Cyclin D1 or Cyclin D2. Similar to the results with the Wnt-HC11 cell lines, both Wnts (CM) stimulated Cyclin D1 expression, while only Wnt1 enhanced cyclin D2 levels. To assess the contribution of Wnt-transactivated ErbB1 on cyclin D1 and D2 expression, C- and Wnt-HC11 cells were treated 6 hr with PKI166 or CGS27023A or EGF. […] In contrast, the ErbB1 inhibitor had no effect on cyclin D2 levels. […] Thus, cyclin D1 and cyclin D2 are differentially controlled. Both Wnt1 and Wnt5a transactivate ErbB1, which results in increased expression of cyclin D1; in contrast cyclinD2 is only elevated in Wnt1 expressing cells and this is independent of ErbB1 activity.

SMILES	cyclin D1 level (cyclin D1)	ability of the Wnt proteins to stimulate ERK1/2 activity (ERK1/2)	decrease of ErbB1's phosphotyrosine level (ErbB1)	cyclin D2 levels (cyclin D2)	ability of Wnt-containing CM to stimulate phospho-ERK1/2 levels (ERK1/2; C-HC11 cells pre-treated for 1 hour with inhibitor)	EGF induction of MAPK activity (ERK1/2; C-HC11 cells, pretreatment with inhibitor)	constitutive level of phospho-ERK1/2 (ERK1/2; Wnt-expressing HC11 cells)
COc1ccc(S(=O)(=O)N(Cc2cccnc2)[C@@H](C(=O)NO)C(C)C)cc1 [CGS27023A]	decreased expression	blocked	–	–	–	–	–
C[C@@H](Nc1ncnc2[nH]c(-c3ccc(O)cc3)cc12)c1ccccc1 [PKI166]	reduced cyclin D1 to the control level	–	approximately 50%	no effect	blocked	prevented	reduced the constitutive level of phospho-ERK1/2 to basal
c1cnc2c(c1)ccc1cccnc12 [Phenanthroline, phenanthroline]	–	blocked	–	–	–	–	–
